Reference: PubChem BioAssay AID1259411 (Chemical Carcinogenesis Research Information System (CCRIS), 2018)
The source made the active and inactive calls. How the calls were made is not given here.

Test system: rodent carcinogenicity bioassays, tumor incidence
Experiment: CCRIS carcinogenicity studies
Description: The CCRIS database contains chemical records with carcinogenicity, mutagenicity, tumor promotion, and tumor inhibition test results. It was developed by the National Cancer Institute (NCI). Data are derived from studies cited in primary journals, current awareness tools, NCI reports, and other sources. Test results have been reviewed by experts in carcinogenesis and mutagenesis.
CCRIS provides historical information from the years 1985 - 2011. It is no longer updated.
This is an archive assay for CCRIS carcinogenicity studies.

## CCCCN(CC)N=O
Species: MOUSE, Strain/Sex: DBA/MALE,FEMALE, Route: ORAL, Dose: 10 MG/KG/D IN DRINKING WATER (TOTAL MEAN DOSE 2360 MG/KG), Tumor Site: Type of Lesion: FORESTOMACH: SQUAMOUS CELL CARCINOMA
  carcinogen call: active; positive
Species: RAT, Strain/Sex: WISTAR/MALE, FEMALE, Route: ORAL, Dose: 0, 10 MG/KG/D FOR 4 WK THEN 5 MG/KG/D FOR DURATION OF STUDY (STUDY DURATION: LIFETIME), Tumor Site: Type of Lesion: ESOPHAGUS: CARCINOMA, PAPILLOMA, PHARYNX: PAPILLOMA, ORAL CAVITY: PAPILLOMA, LIVER: ANGIOSARCOMA, HEPATOCELLULAR CARCINO, Tumor Site: Type of Lesion: ESOPHAGUS: CARCINOMA, PAPILLOMA, PHARYNX: PAPILLOMA, ORAL CAVITY: PAPILLOMA, LIVER: ANGIOSARCOMA, HEPATOCELLULAR CARCINO
  carcinogen call: active; positive

## O=[N+]([O-])c1cccc2c1-c1cccc3c([N+](=O)[O-])ccc-2c13
Species: RAT, Strain/Sex: F344/DUCRJ/MALE, Route: PULMONARY IMPLANT, Dose: 0, 0.2 MG AS A SUSPENSION IN EQUAL VOL OF BEESWAX AND TRICAPRYLIN IMPLANTED IN LEFT LUNG (STUDY DURATION: 70 WK), Tumor Site: Type of Lesion: LUNG: TUMOR
  carcinogen call: active; positive
Species: RAT, Strain/Sex: F344/MALE, Route: LUNG IMPLANT, Dose: 0, 200 UG IN BEESWAX/TRICAPRYLIN INTO LOWER LEFT LUNG ONCE (STUDY DURATION: 100 WK), Tumor Site: Type of Lesion: LUNG: SQUAMOUS CELL CARCINOMA
  carcinogen call: active; positive
Species: RAT, Strain/Sex: F344/MALE, Route: PULMONARY IMPLANT, Dose: 0, 200 UG IN 50 µL BEESWAX/TRICAPRYLIN IMPLANTED FOR UP TO 100 WK (STUDY DURATION: 100 WK), Tumor Site: Type of Lesion: LUNG: TUMOR
  carcinogen call: active; positive

## CCNC(=S)NCC
Species: MOUSE, Strain/Sex: B6C3F1/FEMALE, Route: ORAL, Dose: 0, 250, 500 PPM IN DIET, Dose: 0, 250, 500 PPM IN DIET
  carcinogen call: inactive; negative
Species: MOUSE, Strain/Sex: B6C3F1/MALE, Route: ORAL, Dose: 0, 250, 500 PPM IN DIET, Dose: 0, 250, 500 PPM IN DIET
  carcinogen call: inactive; negative
Species: RAT, Strain/Sex: F344/FEMALE, Route: ORAL, Dose: 0, 125, 250 PPM IN DIET, Dose: 0, 125, 250 PPM IN DIET, Tumor Site: Type of Lesion: THYROID GLAND: FOLLICULAR CELL CARCINOMA OR FOLLICULAR CELL ADENOMA
  carcinogen call: active; positive
Species: RAT, Strain/Sex: F344/MALE, Route: ORAL, Dose: 0, 125, 250 PPM IN DIET, Dose: 0, 125, 250 PPM IN DIET, Tumor Site: Type of Lesion: THYROID GLAND: FOLLICULAR CELL CARCINOMA OR FOLLICULAR CELL ADENOMA
  carcinogen call: active; positive

## CCOc1ccc(NC(C)=O)cc1
Species: MOUSE, Strain/Sex: B6C3F1/MALE, Route: ORAL, Dose: 0.6, 1.25% IN DIET, Tumor Site: Type of Lesion: KIDNEY: RENAL CELL ADENOMA, RENAL CELL CARCINOMA
  carcinogen call: active; positive
Species: RAT, Strain/Sex: SD/CSHI/MALE, Route: ORAL, Dose: 0, 2% IN DIET FOR 85 WK (STUDY DURATION: 85 WK), Tumor Site: Type of Lesion: RENAL PELVIS: CARCINOMA, PAPILLOMA, URINARY BLADDER: PAPILLOMA
  carcinogen call: active; positive
Species: RAT, Strain/Sex: SPRAGUE-DAWLEY/FEMALE, Route: ORAL, Dose: 1.25, 2.5% IN DIET FOR 18 MO, Tumor Site: Type of Lesion: NASAL CAVITY
  carcinogen call: active; positive
Species: RAT, Strain/Sex: SPRAGUE-DAWLEY/MALE, Route: ORAL, Dose: 0, 0.535% IN DIET FOR 117 WK, Tumor Site: Type of Lesion: KIDNEY, NASAL CAVITY: SQUAMOUS CELL CARCINOMA
  carcinogen call: active; positive
Species: RAT, Strain/Sex: SPRAGUE-DAWLEY/MALE, Route: ORAL, Dose: 1.25, 2.5% IN DIET FOR 18 MO, Tumor Site: Type of Lesion: NASAL CAVITY, URINARY TRACT
  carcinogen call: active; positive

## CC(=O)O[C@]1(C(C)=O)CC[C@H]2[C@@H]3C[C@H](C)C4=CC(=O)CC[C@]4(C)[C@H]3CC[C@@]21C
Species: DOG, Route: INTRAMUSCULAR, Tumor Site: Type of Lesion: MAMMARY GLAND
  carcinogen call: active; positive
Species: MONKEY, Strain/Sex: CYNOMOLGUS/FEMALE, Route: ORAL, Dose: 0, 2.5 MG/WOMAN/D HUMAN DOSE EQUIVALENT IN DIET FOR 36 MONTHS BEGINNING 3 MONTHS POST BILATERAL OVARIECTOMY (STUDY DURAT
  carcinogen call: inactive; negative

## O=[N+]([O-])NC1=NCCN1Cc1ccc(Cl)nc1
Species: Mouse, Strain/Sex: B6C3F1/Female (60/Group), Route: Oral, Dose: 0, 100, 330, 1000 ppm and 0, 2000 ppm (2 related studies) of 95.3% imidacloprid in diet for 24 mo, study duration 24 mo, Dose: 0, 100, 330, 1000 ppm and 0, 2000 ppm (2 related studies) of 95.3% imidacloprid in diet for 24 mo, study duration 24 mo
  carcinogen call: inactive; negative
Species: Mouse, Strain/Sex: B6C3F1/Male (60/Group), Route: Oral, Dose: 0, 100, 330, 1000 ppm and 0, 2000 ppm (2 related studies) of 95.3% imidacloprid in diet for 24 mo, study duration 24 mo, Dose: 0, 100, 330, 1000 ppm and 0, 2000 ppm (2 related studies) of 95.3% imidacloprid in diet for 24 mo, study duration 24 mo
  carcinogen call: inactive; negative
Species: Rat, Strain/Sex: Wistar/Female (60/Group), Route: Oral, Dose: 0, 100, 300, 900 ppm and 0;1800 ppm (2 related studies) of 94.3% imidacloprid in diet for 24 mo, study duration 24 mo, Dose: 0, 100, 300, 900 ppm and 0;1800 ppm (2 related studies) of 94.3% imidacloprid in diet for 24 mo, study duration 24 mo
  carcinogen call: inactive; negative
Species: Rat, Strain/Sex: Wistar/Male (60/Group), Route: Oral, Dose: 0, 100, 300, 900 ppm and 0, 1800 ppm (2 related studies) of 94.3% imidacloprid in diet for 24 mo, study duration 24 mo, Dose: 0, 100, 300, 900 ppm and 0, 1800 ppm (2 related studies) of 94.3% imidacloprid in diet for 24 mo, study duration 24 mo, Tumor Site: Type of Lesion: Liver: Cholangiocellular carcinoma (2/60 at 1800 ppm vs 0/60 all other groups)
  carcinogen call: active; positive

## CC(C)Nc1nc(Cl)nc(NCC(=O)O)n1
Species: Mouse, Strain/Sex: Crl:CD-1(ICR)BR/Female, Route: Oral, Dose: 0, 10, 30, 300, 900 ppm in diet for 18 mo, Dose: 0, 10, 30, 300, 900 ppm in diet for 18 mo
  carcinogen call: inactive; negative
Species: Mouse, Strain/Sex: Crl:CD-1(ICR)BR/Male, Route: Oral, Dose: 0, 10, 30, 300, 900 ppm in diet for 18 mo, Dose: 0, 10, 30, 300, 900 ppm in diet for 18 mo, Tumor Site: Type of Lesion: Liver: Multiple hepatocellular adenomas (3/60 at 900 ppm vs. 0/60 in controls) Blood Vessels: Hemangiosarcomas (2/60 at
  carcinogen call: active; positive (only at highest dose)
Species: Rat, Strain/Sex: Crl:CD BR/Female, Route: Oral, Dose: 0, 5, 15, 30, 300, 900 ppm in diet for 24 mo, Dose: 0, 5, 15, 30, 300, 900 ppm in diet for 24 mo
  carcinogen call: inactive; negative
Species: Rat, Strain/Sex: Crl:CD BR/Male, Route: Oral, Dose: 0, 5, 15, 30, 300, 900 ppm in diet for 24 mo, Dose: 0, 5, 15, 30, 300, 900 ppm in diet for 24 mo, Tumor Site: Type of Lesion: Thyroid: Thyroid follicular cell adenoma
  carcinogen call: active; positive (at highest dose only); ca dpr describes as a possible adverse effect

## CNNC
Species: HAMSTER, Route: INTRAMUSCULAR, Tumor Site: Type of Lesion: STOMACH, LIVER, INTESTINES, Tumor Site: Type of Lesion: STOMACH, LIVER, INTESTINES
  carcinogen call: active; positive
Species: HAMSTER, Route: ORAL, Tumor Site: Type of Lesion: BLOOD VESSELS, INTESTINES, LIVER, Tumor Site: Type of Lesion: BLOOD VESSELS, INTESTINES, LIVER
  carcinogen call: active; positive
Species: MONKEY, Strain/Sex: CEBUS APELLA/MALE, Route: SUBCUTANEOUS, Dose: 0, 25 MG/KG BW 1/WK FOR 16 WK (STUDY DURATION: 20 MO)
  carcinogen call: inactive; negative
Species: MOUSE, Route: ORAL, Tumor Site: Type of Lesion: LUNG, BLOOD VESSELS
  carcinogen call: active; positive
Species: MOUSE, Route: SUBCUTANEOUS, Tumor Site: Type of Lesion: COLON, INTESTINES
  carcinogen call: active; positive
Species: RAT, Route: ORAL, Tumor Site: Type of Lesion: INTESTINES, LIVER
  carcinogen call: active; positive
Species: RAT, Route: SUBCUTANEOUS, Tumor Site: Type of Lesion: COLON, INTESTINES, LIVER, Tumor Site: Type of Lesion: COLON, INTESTINES, LIVER
  carcinogen call: active; positive
Species: RAT, Strain/Sex: WISTAR/FEMALE, Route: SUBCUTANEOUS, Dose: 0, 200 MG/KG BW ONCE (STUDY DURATION: 1 YR), Tumor Site: Type of Lesion: KIDNEY: TUMOR
  carcinogen call: active; positive
Species: RAT, Strain/Sex: WISTAR/MALE, Route: SUBCUTANEOUS, Dose: 30 MG/KG IN NACL-EDTA 1/WK FOR 10 OR 15 WK, Tumor Site: Type of Lesion: INTESTINES: CARCINOMA (INVASIVE, INCLUDING MUCIN AND NONMUCIN PRODUCING), CARCINOMA (NONINVASIVE)
  carcinogen call: active; positive

## c1ccc2c(c1)ccc1cc3ccc4c(c3nc12)[C@@H]1O[C@@H]1CC4
Species: MOUSE, Strain/Sex: CD-1/FEMALE, Route: INTRAPERITONEAL, Dose: 0, 28 NMOL (TOTAL DOSE) ADMINISTERED AS 1/7 OF DOSE WITHIN 24 HR AFTER BIRTH, 2/7 OF DOSE AT 8 D OLD, 4/7 OF DOSE AT 15
  carcinogen call: inactive; negative
Species: MOUSE, Strain/Sex: CD-1/MALE, Route: INTRAPERITONEAL, Dose: 0, 28 NMOL (TOTAL DOSE) ADMINISTERED AS 1/7 OF DOSE WITHIN 24 HR AFTER BIRTH, 2/7 OF DOSE AT 8 D OLD, 4/7 OF DOSE AT 15
  carcinogen call: inactive; negative
